In patent US7511145B2 (Genelabs Technologies, Inc., priority 2003, dated 2009):

Molecular target: T1, HCV-NS5b (Hepatitis C virus genotype 1b, UniProt Q9WMX2)
T1 construct: (His)6 (C); made in house; host or cells: XL-1 cells (E. coli), IPTG-inducible plasmid, nickel-NTA purification
Experiment: HCV-NS5b enzyme assay (incorporation of radiolabeled UTP)
Type: biochemical
Settings: for inhibition at 33 µM: enzyme inhibition at compound concentration of 33 uM; for inhibition at 100 µM: read-out: % inh@100, enzyme inhibition at compound concentration of 100 uM
Procedure, shortened: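 Percent inhibition, background-corrected against uninhibited control, was measured at 100 and 33 uM compound. Incorporation of [3H]-UTP (10 μM each NTP) into biotinylated HCV-template RNA, 37° C for 2 h, pH 7.5, scintillation proximity. Enzyme: C-terminally truncated (21 aa), His6-tagged NS5b from XL-1.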

O=C(O)c1ccc2c(c1)nc(-c1ccc3nc(-c4cc([N+](=O)[O-])ccc4-c4ccc(Cl)cc4)ccc3c1)n2C1CCCCC1 [Compound 439, 2-[2-(4′-chloro-4-nitro-biphen-2-yl)-quinolin-6-yl]-1-cyclohexyl-1H-benzoimidazole-5-carboxylic acid]
inhibition at 33 µM: 99.2%
inhibition at 100 µM: 97%

O=C(O)c1ccc2c(c1)nc(-c1ccc3nc(-c4ccccc4-c4ccc(Cl)cc4)c(-c4ccccc4)cc3c1)n2C1CCCCC1 [Compound 440, 2-[2-(4′-Chloro-biphen-2-yl)-3-phenyl-quinolin-6-yl]-1-cyclohexyl-1H-benzoimidazole-5-carboxylic acid]
inhibition at 33 µM: 99.2%
inhibition at 100 µM: 97.8%

COc1ccc(-c2nc3ccc(-c4nc5cc(C(=O)O)ccc5n4C4CCCCC4)cc3nc2-c2ccc(OC)cc2)cc1 [Compound 441, 2-[2,3-Bis-(4-methoxyphenyl)quinoxalin-6-yl]-1-cyclohexyl-1H-benzimidazole-5-carboxylic acid]
inhibition at 33 µM: 97.3%
inhibition at 100 µM: 98.8%

O=C(O)c1ccc2c(c1)nc(-c1ccc3nc(-c4cnccn4)ccc3c1)n2C1CCCCC1 [Compound 442, 1-cyclohexyl-2-(2-pyrazin-2-yl-quinolin-6-yl)-1H-benzoimidazole-5-carboxylic acid]
inhibition at 33 µM: 92.5%
inhibition at 100 µM: 98.2%

O=C(O)c1ccc2c(c1)nc(-c1ccc3nc(-c4ccncc4)ccc3c1)n2C1CCCCC1 [Compound 443, 1-cyclohexyl-2-(2-pyridin-4-yl-quinolin-6-yl)-1H-benzoimidazole-5-carboxylic acid]
inhibition at 33 µM: 87%
inhibition at 100 µM: 98.7%

Cc1ccc2cc(-c3ccc4cc(-c5nc6cc(C(=O)O)ccc6n5C5CCCCC5)ccc4n3)ccc2c1 [Compound 444, 1-cyclohexyl-2-[2-(6-methyl-naphthalen-2-yl)-quinolin-6-yl]-1H-benzoimidazole-5-carboxylic acid]
inhibition at 33 µM: 99.5%
inhibition at 100 µM: 101%

COCCOc1cccc(-c2ccc3cc(-c4nc5cc(C(=O)O)ccc5n4C4CCCCC4)ccc3n2)c1 [Compound 445, 1-Cyclohexyl-2-{2-[3-(2-methoxy-ethoxy)-phenyl]-quinolin-6-yl}-1H-benzoimidazole-5-carboxylic acid]
inhibition at 33 µM: 96.9%
inhibition at 100 µM: 99.6%

O=C(O)c1ccc2c(c1)nc(-c1ccc3nc(-c4ccccc4[N+](=O)[O-])ccc3c1)n2C1CCCCC1 [Compound 446]
inhibition at 33 µM: 96.6%
inhibition at 100 µM: 101%

O=C(O)c1ccc2c(c1)nc(-c1ccc3nc(-c4cc(OCCCN5CCCC5)ccc4-c4ccc(Cl)cc4)ccc3c1)n2C1CCCCC1 [Compound 447, 2-{2-[4′-Chloro-4-(3-pyrrolidin-1-yl-propoxy)-biphen-2-yl]-quinolin-6-yl}-1-cyclohexyl-1H-benzoimidazole-5-carboxylic acid]
inhibition at 33 µM: 97.8%
inhibition at 100 µM: 94.9%

Cc1oc2ccc(OCc3ccccc3)cc2c1-c1ccc2cc(-c3nc4cc(C(=O)O)ccc4n3C3CCCCC3)ccc2n1 [Compound 448, 2-[2-(5-benzyloxy-2-methyl-benzofuran-3-yl)-quinolin-6-yl]-1-cyclohexyl-1H-benzoimidazole-5-carboxylic acid]
inhibition at 33 µM: 94.6%
inhibition at 100 µM: 96%

O=C(O)c1ccc2c(c1)nc(-c1ccc3nc(-c4cnn(-c5ccccc5)c4)ccc3c1)n2C1CCCCC1 [Compound 449, 1-cyclohexyl-2-[2-(1-phenyl-1H-pyrazol-4-yl)-quinolin-6-yl]-1H-benzoimidazole-5-carboxylic acid]
inhibition at 33 µM: 99.8%
inhibition at 100 µM: 101%

O=C(O)c1ccc2c(c1)nc(-c1ccc3nc(-c4ccc[nH]4)ccc3c1)n2C1CCCCC1 [Compound 450, 1-Cyclohexyl-2-[2-(1H-pyrrol-2-yl)-quinolin-6-yl]-1H-benzoimidazole-5-carboxylic acid]
inhibition at 33 µM: 96.5%
inhibition at 100 µM: 99.7%

O=C(O)c1ccc2c(c1)nc(-c1ccc3nc(-c4ccccc4)cc(NCCCn4ccnc4)c3c1)n2C1CCCCC1 [Compound 451, 1-cyclohexyl-2-[4-(3-imidazol-1-yl-propylamino)-2-phenyl-quinolin-6-yl]-1H-benzoimidazole-5-carboxylic acid]
inhibition at 33 µM: 76.3%
inhibition at 100 µM: 95.6%

COc1cc(O)c(-c2ccc3cc(-c4nc5cc(C(=O)O)ccc5n4C4CCCCC4)ccc3n2)c(OC)c1 [Compound 452, 1-cyclohexyl-2-[2-(2-hydroxy-4,6-dimethoxy-phenyl)-quinolin-6-yl]-1H-benzoimidazole-5-carboxylic acid]
inhibition at 33 µM: 102%
inhibition at 100 µM: 102%

COc1ccc(-c2ccco2)c(-c2ccc3cc(-c4nc5cc(C(=O)O)ccc5n4C4CCCCC4)ccc3n2)c1 [Compound 454, 1-cyclohexyl-2-[2-(2-furan-2-yl-5-methoxy-phenyl)-quinolin-6-yl]-1H-benzoimidazole-5-carboxylic acid]
inhibition at 33 µM: 98.3%
inhibition at 100 µM: 101%

COc1ccc(-c2ccc(F)cc2)c(-c2ccc3cc(-c4nc5cc(C(=O)O)ccc5n4C4CCCCC4)ccc3n2)c1 [Compound 455, 1-Cyclohexyl-2-[2-(4′-fluoro-4-methoxy-biphen-2-yl)-quinolin-6-yl]-1H-benzoimidazole-5-carboxylic acid]
inhibition at 33 µM: 100%
inhibition at 100 µM: 99.8%

CCOc1ccc(-c2ccc(OC)cc2-c2ccc3cc(-c4nc5cc(C(=O)O)ccc5n4C4CCCCC4)ccc3n2)cc1 [Compound 456, 1-cyclohexyl-2-[2-(4′-ethoxy-4-methoxy-biphen-2-yl)-quinolin-6-yl]-1H-benzoimidazole-5-carboxylic acid]
inhibition at 33 µM: 100%
inhibition at 100 µM: 99.7%

O=C(O)c1ccc2c(c1)nc(-c1ccc3nc(C(c4ccccc4)c4ccccc4)ccc3c1)n2C1CCCCC1 [Compound 457, 2-(2-benzhydryl-quinolin-6-yl)-1-cyclohexyl-1H-benzoimidazole-5-carboxylic acid]
inhibition at 33 µM: 98.2%
inhibition at 100 µM: 98.3%

CN(C)c1ccc(-c2nc3ccc(-c4nc5cc(C(=O)O)ccc5n4C4CCCCC4)cc3nc2-c2ccc(N(C)C)cc2)cc1 [Compound 458, 2-[2,3-Bis-(4-dimethylaminotphenyl)quinoxalin-6-yl]-1-cyclohexyl-1H-benzimidazole-5-carboxylic acid]
inhibition at 33 µM: 100%
inhibition at 100 µM: 104%

O=C(O)c1ccc2c(c1)nc(-c1ccc3nc(-c4ccc5c(c4)CCCC5)ccc3c1)n2C1CCCCC1 [Compound 459, 1-cyclohexyl-2-[2-(5,6,7,8-tetrahydro-naphthalen-2-yl)-quinolin-6-yl]-1H-benzoimidazole-5-carboxylic acid]
inhibition at 33 µM: 99.5%
inhibition at 100 µM: 99.8%

O=C(O)c1ccc2c(c1)nc(-c1ccc3nc(-c4c(O)ccc5ccccc45)ccc3c1)n2C1CCCCC1 [Compound 460, 1-cyclohexyl-2-[2-(2-hydroxy-naphthalen-1-yl)-quinolin-6-yl]-1H-benzoimidazole-5-carboxylic acid]
inhibition at 33 µM: 101%
inhibition at 100 µM: 102%

COCCOc1ccc(-c2ccccc2)c(-c2ccc3cc(-c4nc5cc(C(=O)O)ccc5n4C4CCCCC4)ccc3n2)c1 [Compound 461, 1-Cyclohexyl-2-{2-[4-(2-methoxy-ethoxy)-biphen-2-yl]-quinolin-6-yl}-1H-benzoimidazole-5-carboxylic acid]
inhibition at 33 µM: 97.9%
inhibition at 100 µM: 96.7%

Cc1c(OCc2ccccc2)ccc(-c2ccc3cc(-c4nc5cc(C(=O)O)ccc5n4C4CCCCC4)ccc3n2)c1O [Compound 462, 2-[2-(4-benzyloxy-2-hydroxy-3-methyl-phenyl)-quinolin-6-yl]-1-cyclohexyl-1H-benzoimidazole-5-carboxylic acid]
inhibition at 33 µM: 98.2%
inhibition at 100 µM: 101%

Cn1c2ccc(Cl)cc2c2cc(-c3ccc4cc(-c5nc6cc(C(=O)O)ccc6n5C5CCCCC5)ccc4n3)ccc21 [Compound 463, 2-[2-(6-chloro-9-methyl-9H-carbazol-3-yl)-quinolin-6-yl]-1-cyclohexyl-1H-benzoimidazole-5-carboxylic acid]
inhibition at 33 µM: 96%
inhibition at 100 µM: 97.2%

Cc1nn(-c2ccccc2)c(C)c1-c1ccc2cc(-c3nc4cc(C(=O)O)ccc4n3C3CCCCC3)ccc2n1 [Compound 464, 1-cyclohexyl-2-[2-(3,5-dimethyl-1-phenyl-1H-pyrazol-4-yl)-quinolin-6-yl]-1H-benzoimidazole-5-carboxylic acid]
inhibition at 33 µM: 99.7%
inhibition at 100 µM: 100%

O=C1COc2ccc(-c3ccc4cc(-c5nc6cc(C(=O)O)ccc6n5C5CCCCC5)ccc4n3)cc2N1 [Compound 465, 1-cyclohexyl-2-[2-(3-oxo-3,4-dihydro-2H-benzo[1,4]oxazin-6-yl)-quinolin-6-yl]-1H-benzoimidazole-5-carboxylic acid]
inhibition at 33 µM: 98.8%
inhibition at 100 µM: 101%

NNc1cc(-c2ccccc2)nc2ccc(-c3nc4cc(C(=O)O)ccc4n3C3CCCCC3)cc12 [Compound 466, 1-Cyclohexyl-2-(4-hydrazino-2-phenyl-quinolin-6-yl)-1H-benzoimidazole-5-carboxylic acid]
inhibition at 33 µM: 92.9%
inhibition at 100 µM: 100%

O=C(O)c1ccc2c(c1)nc(-c1ccc3nc(-c4ccccc4)cc(Sc4ccccc4)c3c1)n2C1CCCCC1 [Compound 467, 1-Cyclohexyl-2-(2-phenyl-4-phenylsulfanyl-quinolin-6-yl)-1H-benzoimidazole-5-carboxylic acid]
inhibition at 33 µM: 96.3%
inhibition at 100 µM: 100%

COc1ccc(-c2ccc(OC)cc2-c2ccc3cc(-c4nc5cc(C(=O)O)ccc5n4C4CCCCC4)ccc3n2)cc1 [Compound 468, 1-cyclohexyl-2-[2-(4,4′-dimethoxy-biphen-2-yl)-quinolin-6-yl]-1H-benzoimidazole-5-carboxylic acid]
inhibition at 33 µM: 99.3%
inhibition at 100 µM: 99.1%
